Laboratory results published in DBAASP.
Converted amounts (≈) assume the structure as drawn.

Legend:
Test in all cases: ≥ marks a high value that may be exact or a test limit, other limits are often not marked, values filed in µg/mL are converted to µM
[1] = system: Aeromonas salmonicida NCIMB 1102
[2] = system: Bacillus subtilis IAM 1026
[3] = system: Escherichia coli JCM 1649
[4] = system: Photobacterium damselae subsp. piscicida Sp 9587
[5] = system: Salmonella typhimurium
[6] = system: Shewanella putrefaciens IAM 1509
[7] = system: Staphylococcus aureus IAM 1011
[8] = system: Vibrio anguillarum NCIMB 829
[9] = system: Vibrio parahaemolyticus Vp+1
[10] = system: Enterobacter cloacae 218R
[11] = system: Enterococcus faecalis ATCC 29212
[12] = system: Enterococcus faecalis W61950
[13] = system: Enterococcus faecalis f43559
[14] = system: Enterococcus faecium mic80
[15] = system: Enterococcus faecium t62764
[16] = system: Escherichia coli ESBL 63103
[17] = system: Escherichia coli ESBL 64771
[18] = system: Klebsiella pneumoniae ESBL 61962
[19] = system: Klebsiella pneumoniae ESBL 63575
[20] = system: Pseudomonas aeruginosa 198
[21] = system: Pseudomonas aeruginosa 213
[22] = system: Pseudomonas aeruginosa 9
[23] = system: Pseudomonas aeruginosa H1027
[24] = system: Pseudomonas aeruginosa H1030
[25] = system: Pseudomonas aeruginosa LES400
[26] = system: Pseudomonas aeruginosa PAO1 H103
[27] = system: Staphylococcus aureus ATCC 25923
[28] = system: Staphylococcus aureus C623
[29] = system: Stenotrophomonas maltophilia ATCC 13637

## CC[C@H](C)[C@H](NC(=O)[C@H](CC(N)=O)NC(=O)[C@H](CO)NC(=O)[C@H](CC(C)C)NC(=O)[C@H](C)NC(=O)CNC(=O)[C@H](Cc1ccccc1)NC(=O)[C@H](CC(C)C)NC(=O)[C@H](CO)NC(=O)[C@@H]1CCCN1C(=O)[C@@H](NC(=O)[C@H](CC(C)C)NC(=O)[C@H](CCCCN)NC(=O)[C@@H](NC(=O)[C@H](CC(C)C)NC(=O)[C@H](Cc1ccccc1)NC(=O)CNC(=O)[C@H](Cc1ccccc1)NC(=O)[C@@H](N)CC(C)C)[C@@H](C)CC)[C@@H](C)CC)C(=O)NCC(=O)N[C@@H](CCCN=C(N)N)C(=O)N[C@@H](CC(N)=O)C(=O)N[C@@H](CCCN=C(N)N)C(=O)N[C@@H](CC(N)=O)C(=O)N[C@@H](CCC(N)=O)C(=O)O [LFGFLIKLIPSLFGALSNIGRNRNQ]
[1]
  MIC: 17.9 µM (≈ 50 µg/mL)
[2]
  MIC: 8.96 µM (≈ 25 µg/mL)
[3]
  MIC: 17.9 µM (≈ 50 µg/mL)
[4]
  MIC: 4.48 µM (≈ 12.5 µg/mL)
[5]
  MIC: 17.9 µM (≈ 50 µg/mL)
[6]
  MIC: 4.48 µM (≈ 12.5 µg/mL)
[7]
  MIC: 2.24 µM (≈ 6.25 µg/mL)
[8]
  MIC: 17.9 µM (≈ 50 µg/mL)
[9]
  MIC: 8.96 µM (≈ 25 µg/mL)

## CC(C)[C@H](NC(=O)[C@H](CCCN=C(N)N)NC(=O)[C@H](CCCCN)NC(=O)[C@@H](NC(=O)[C@H](Cc1ccccc1)NC(=O)[C@H](CCCCN)NC(=O)[C@H](Cc1c[nH]c2ccccc12)NC(=O)[C@@H](NC(=O)[C@H](C)N)C(C)C)C(C)C)C(=O)O [AVWKFVKRV]
[10]
  MIC: ≥ 186 µM
[11]
  MIC: > 186 µM
[12]
  MIC: ≥ 186 µM
[13]
  MIC: ≥ 186 µM
[14]
  MIC: ≥ 93.6 µM
[15]
  MIC: ≥ 93.6 µM
[16]
  MIC: ≥ 186 µM
[17]
  MIC: ≥ 93.6 µM
[18]
  MIC: ≥ 186 µM
[19]
  MIC: ≥ 186 µM
[20]
  MIC: ≥ 186 µM
[21]
  MIC: ≥ 186 µM
[22]
  MIC: ≥ 186 µM
[23]
  MIC: ≥ 93.6 µM
[24]
  MIC: ≥ 186 µM
[25]
  MIC: ≥ 186 µM
[26]
  MIC: ≥ 186 µM
[27]
  MIC: 186 µM (≈ 211 µg/mL)
[28]
  MIC: ≥ 186 µM
[29]
  MIC: ≥ 46.8 µM
